From patent US6716858B1, “Methods for inhibiting diabetic complications” (Kansas University Medical Center, priority 1995, dated 2004) come the findings set out here.

Data set [1] deals with AGE formation in human methemoglobin (Hb). Put plainly: Uninterrupted glycation of human methemoglobin with glucose, anti-AGE ELISA. The note with it: Hb 1 mg/ml, 1.0 M glucose, 3 weeks; inhibitors 0.5, 3, 15 and 50 mM. It counts as biochemical. Here is the method: (§1) Uninterrupted Glycation with Glucose Bovine serum albumin, ribonuclease A, and human hemoglobin were incubated with glucose at 37° C. in 0.4 M sodium phosphate buffer of pH 7.5 containing 0.02% sodium azide. The protein, glucose (at 1.0 M), and prospective inhibitors (at 0.5, 3, 15 and 50 mM) were introduced into the incubation mixture simultaneously. Solutions were kept in the dark in capped tubes. Aliquots were taken and immediately frozen until analyzed by ELISA at the conclusion of the reaction. The incubations were for 3 weeks (Hb) or 6 weeks (RNase, BSA).
(§2) ELISA detection of AGE products. The general method of Engvall (1981, Methods Enzymol. 70:419-439) was used to perform the ELISA. Typically, glycated protein samples were diluted to approximately 1.5 ug/ml in 0.1 M sodium carbonate buffer of pH 9.5 to 9.7. The protein was coated overnight at room temperature onto 96-well polystyrene plates by pippetting 200 ul of the protein solution in each well (0.3 ug/well). After coating, the protein was washed from the wells with a saline solution containing 0.05% Tween-20. The wells were then blocked with 200 ul of 1% casein in carbonate buffer for 2 h at 37° C. followed by washing. Rabbit anti-AGE antibodies were diluted at a titer of about 1:350 in incubation buffer, and incubated for 1 h at 37° C., followed by washing. In order to minimize background readings, antibodies R479 used to detect glycated RNase were raised against glycated BSA, and antibodies R618 used to detect glycated BSA and glycated Hb were raised against glycated RNase. An alkaline phosphatase-conjugated antibody to rabbit IgG was then added as the secondary antibody at a titer of 1:2000 or 1:2500 (depending on lot) and incubated for 1 h at 37° C., followed by washing. The p-nitrophenylphosphate substrate solution was then added (200 ul/well) to the plates, with the absorbance of the released p-nitrophenolate being monitored at 410 nm with a Dynatech MR 4000 microplate reader.
(§3) Aliquots were assayed by ELISA using R618 anti-AGE antibodies.
as §3

The subject of a further data set is ribose-treated rats. Put plainly: Ribose rat model, intervention by compounds (Phase III). It counts as in vivo. The conditions noted are these: for Albumin effusion rate (AER): absence of ribose, pyridoxamine and TPP 250 mg/kg, aminoguanidine 25 mg/kg. Here is the method: Sixty rats were randomized into 9 different groups, including those exposed to 1 M ribose for 8 days in the presence and absence of aminoguanidine, pyridoxamine, and thiamine pyrophosphate as follows:
(ii) high dose (250 mg/kg body weight) of pyridoxamine (“compound-P”);
(iii) high dose (250 mg/kg body weight of thiamine pyrophosphate (“compound-T” or “TPP”); and
(iv) low dose (25 mg/kg body weight) of aminoguanidine (“AG”).
(i) only 1 M ribose-saline (2×9 cc daily IP for 8 days);
(ii) ribose plus low dose (“LP”) of pyridoxamine (25 mg/kg body weight injected as 0.5 ml with 9 cc ribose);
(iii) ribose plus high dose (“HP”) of pyridoxamine (250 mg/kg body weight injected as 0.5 ml with 9 cc ribose);
(iv) ribose plus high dose (“HT”) of thiamine pyrophosphate (250 mg/kg body weight injected as 0.5 ml with 9 cc ribose); and
(v) ribose plus low dose of amino guanidine (25 mg/kg body weight injected as 0.5 ml with 9 cc ribose).
Unlike Phase II, no ribose was administered in drinking water. Intervention compounds were pre-administered for one day prior to introducing them with ribose.

The subject of data set [2] is AGE formation in bovine serum albumin (BSA). Put plainly: Uninterrupted glycation of BSA with glucose, anti-AGE ELISA. It counts as biochemical. The note with it: BSA 10 mg/ml, 1.0 M glucose, pH 7.5, 37° C., 6 weeks; inhibitors 3, 15 and 50 mM. Here is the method:
as §1, §2
FIGS. 1 A-D are graphs which show the effect of vitamin B6 derivatives on post-Amadori AGE formation in bovine serum albumin glycated with glucose. BSA (10 mg/ml) was incubated with 1.0 M glucose in the presence and absence of the various indicated derivative in 0.4 M sodium phosphate buffer of pH 7.5 at 37° C. for 6 weeks. Aliquots were assayed by ELISA using R618 anti-AGE antibodies. Concentrations of the inhibitors were 3, 15 and 50 mM. Inhibitors used in FIGS. (1A) Pyridoxamine (PM); (1B) pyridoxal phosphate (PLP); (1C) pyridoxal (PL); (1D) pyridoxine (PN).
FIGS. 2A-D are graphs which show the effect of vitamin B1 derivatives and aminoguanidine (AG) on AGE formation in bovine serum albumin. BSA (10 mg/ml) was incubated with 1.0 M glucose in the presence and absence of the various indicated derivative in 0.4 M sodium phosphate buffer of pH 7.5 at 37° C. for 6 weeks. Aliquots were assayed by ELISA using R618 anti-AGE antibodies. Concentrations of the inhibitors were 3, 15 and 50 mM. Inhibitors used in FIGS. (2A) Thiamine pyrophosphate (TPP); (2B) thiamine monophosphate (TP); (2C) thiamine (T); (2D) aminoguanidine (AG).

Data set [3] has as its system AGE formation during uninterrupted glycation of bovine serum albumin (BSA) by ribose. Put plainly: Uninterrupted ribose glycation assay, BSA. It counts as biochemical. The conditions noted are these: 0.05 M ribose, 6 weeks, inhibitors 0.5-50 mM. As to the method:
as §2
as §1, with “ribose glycation assays” for “Glycation with Glucose”, “ribose” for “glucose”, “protein (10 mg/ml or 1 mg/ml), 0.05 M ribose,” for “protein, glucose (at 1.0 M),”, “BSA). Glycation reactions were monitored for constant pH throughout the duration of the experiments.” for “BSA).”

The test system of data set [4] is AGE formation during uninterrupted glycation of ribonuclease A (RNase A) by ribose. Put plainly: Uninterrupted ribose glycation assay, RNase. The note with it: continuous 0.05 M ribose, 6 weeks, inhibitors 0.5-50 mM. In kind it is biochemical, bovine. As to the method: as §2
as §1, with “ribose glycation assays” for “Glycation with Glucose”, “ribose” for “glucose”, “protein (10 mg/ml or 1 mg/ml), 0.05 M ribose,” for “protein, glucose (at 1.0 M),”, “BSA). Glycation reactions were monitored for constant pH throughout the duration of the experiments.” for “BSA).”
The inhibitory effects of vitamin B1 and B6 derivatives on the kinetics of antigenic AGE formation were evaluated by polyclonal antibodies specific for AGEs. Initial inhibition studies were carried out on the glycation of bovine ribonuclease A (RNase) in the continuous presence of 0.05 M ribose, which is the concentration of ribose where the rate of AGE formation is near maximal.

The mark [5] stands for this setting: co-administered with 1 M ribose, low dose 25 mg/kg.
Where [6] appears, read: co-administered with 1 M ribose, 250 mg/kg.
The mark [7] stands for this setting: compound alone, 250 mg/kg, no ribose.

In the case of `N=C(N)NN` [aminoguanidine, reference compound], the “inhibition of antigenic AGE formation (ELISA)” value (“inhibition … (ELISA)” below) in data set [1] is “only inhibited the rate of AGE formation, and not the final levels of AGE formed”; in data set [2] it was “produced some inhibition of AGE formation in BSA, but less so than the above compounds”. In the data set with ribose-treated rats, the “Albumin effusion rate (AER)” value is on record as “elevated”. Moreover, the Albumin effusion rate entry with ribose-treated rats (setting [5]) is reported as “restored to normal”. In the data set on ribose-treated rats (setting [5]), the creatinine clearance result is “normalized”. Moreover, the “inhibition of overall kinetics of AGE formation from ribose” value (from here on “inhibition … from ribose”) in data set [3] is on record as “appearing to slow the rate of AGE formation without significantly affecting the final levels of AGE formed”; in data set [4] it was “decreased the rate of AGE formation on RNase, but did not reduce the final level of AGE formed”.

Consider `Cc1ncc(CO)c(CN)c1O` [pyridoxamine], for which the “inhibition … (ELISA)” value was “the most effective inhibitors in each of their respective families” in data set [1] and “strongly suppressed antigenic AGE formation at even the lowest concentrations tested” in data set [2]. For the same compound, in the data set with ribose-treated rats, the “Albumin effusion rate (AER)” value is on record as “elevated”. Also, the creatinine clearance result is “only partial protection against the ribose-induced decrease in creatinine clearance” in the data set with ribose-treated rats (setting [6]); “normalized” in the data set with ribose-treated rats (setting [5]); “but not pyridoxamine, appeared to decrease creatinine clearance” with ribose-treated rats (setting [7]). In addition, the Albumin effusion rate result in the data set with ribose-treated rats (setting [5]) is reported as “restored to normal”. The “inhibition … from ribose” value in data set [3] was “exhibited some inhibition at lower concentrations, and at the highest concentration tested appeared to inhibit the final levels of AGE formed more effectively than any of the other B6 derivatives”; in data set [4] it was “best inhibitor of the “final” levels of AGE formed on RNase”.

On to `Cc1ncc(C[n+]2csc(CCO[P@](=O)(O)OP(=O)(O)O)c2C)c(N)n1` [thiamine pyrophosphate], for which the “inhibition … (ELISA)” value was “the most effective inhibitors in each of their respective families” in data set [1] and “effective at all concentrations tested” in data set [2]. Moreover, in the data set with ribose-treated rats, the “Albumin effusion rate (AER)” value is listed as “elevated”. In addition, the creatinine clearance entry was “only partial protection against the ribose-induced decrease in creatinine clearance” with ribose-treated rats (setting [6]) and “diminished it” in the data set on ribose-treated rats (setting [7]). Besides, the “inhibition … from ribose” value in data set [3] is “inhibited the final levels of AGEs formed, without greatly affecting the rate of AGE formation”; in data set [4] it was “both the rate of AGE formation and the final levels of AGE produced at the plateau appeared diminished”.
